# Source: PubChem BioAssay (NCI)
#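 Assay format: 96-well plates, 48-hour exposure. TGI: total growth inhibition.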
# Experiments:
# Assay in all cases: DTP human tumour cell line panel, 48 h
# LOX IMVI melanoma = tested on: LOX IMVI melanoma
# SK-MEL-5 melanoma = tested on: SK-MEL-5 melanoma
# MDA-MB-435 = tested on: MDA-MB-435
# UO-31 renal = tested on: UO-31 renal
# SF-295 CNS = tested on: SF-295 CNS
# PC-3 prostate = tested on: PC-3 prostate
# UACC-62 melanoma = tested on: UACC-62 melanoma
# T-47D breast = tested on: T-47D breast
# HOP-62 NSCLC = tested on: HOP-62 NSCLC
# HS 578T breast = tested on: HS 578T breast
# NCI-H23 lung = tested on: NCI-H23 lung
# MDA-N = tested on: MDA-N
# SNB-75 CNS = tested on: SNB-75 CNS
# CAKI-1 renal = tested on: CAKI-1 renal
# NCI-H522 lung = tested on: NCI-H522 lung
# BT-549 breast = tested on: BT-549 breast
# NCI-H460 lung = tested on: NCI-H460 lung
# HCC-2998 colon = tested on: HCC-2998 colon
# SW-620 colon = tested on: SW-620 colon
# MCF7 breast = tested on: MCF7 breast
# OVCAR-3 ovarian = tested on: OVCAR-3 ovarian
# 786-0 renal = tested on: 786-0 renal
# SF-539 CNS = tested on: SF-539 CNS
# SN12C renal = tested on: SN12C renal
# U251 CNS = tested on: U251 CNS
# KM12 colon = tested on: KM12 colon
# SK-MEL-28 melanoma = tested on: SK-MEL-28 melanoma
# HOP-92 NSCLC = tested on: HOP-92 NSCLC
# TK-10 renal = tested on: TK-10 renal
# MALME-3M melanoma = tested on: MALME-3M melanoma
# SK-MEL-2 melanoma = tested on: SK-MEL-2 melanoma
# IGROV1 ovarian = tested on: IGROV1 ovarian
# OVCAR-4 ovarian = tested on: OVCAR-4 ovarian
# OVCAR-8 ovarian = tested on: OVCAR-8 ovarian
# MOLT-4 leukemia = tested on: MOLT-4 leukemia
# MDA-MB-231 breast = tested on: MDA-MB-231 breast
# HCT-116 colon = tested on: HCT-116 colon
# OVCAR-5 ovarian = tested on: OVCAR-5 ovarian
# A549 NSCLC = tested on: A549 NSCLC
# NCI/ADR-RES ovarian = tested on: NCI/ADR-RES ovarian
# UACC-257 melanoma = tested on: UACC-257 melanoma
# EKVX NSCLC = tested on: EKVX NSCLC
# CCRF-CEM leukemia = tested on: CCRF-CEM leukemia
# HCT-15 colon = tested on: HCT-15 colon
# DU-145 prostate = tested on: DU-145 prostate
# M14 melanoma = tested on: M14 melanoma
# K-562 leukemia = tested on: K-562 leukemia
# SNB-19 CNS = tested on: SNB-19 CNS
# ACHN renal = tested on: ACHN renal
# HT29 colon = tested on: HT29 colon
# SF-268 CNS = tested on: SF-268 CNS
# SK-OV-3 ovarian = tested on: SK-OV-3 ovarian
# RPMI-8226 leukemia = tested on: RPMI-8226 leukemia
# COLO 205 colon = tested on: COLO 205 colon
# NCI-H226 lung = tested on: NCI-H226 lung
# SR leukemia = tested on: SR leukemia
# HL-60(TB) leukemia = tested on: HL-60(TB) leukemia
smiles,measurement,setting,value
COc1ccc2c(c1)-c1[nH]c3ccccc3c1CC2,TGI,LOX IMVI melanoma,36.3 µM
same,TGI,SK-MEL-5 melanoma,28.2 µM
same,TGI,MDA-MB-435,31.7 µM
same,TGI,UO-31 renal,29.5 µM
same,TGI,SF-295 CNS,27.3 µM
same,TGI,PC-3 prostate,29.6 µM
same,TGI,UACC-62 melanoma,29.4 µM
same,TGI,T-47D breast,29.1 µM
same,TGI,HOP-62 NSCLC,30.8 µM
same,TGI,HS 578T breast,30.6 µM
same,TGI,NCI-H23 lung,26.9 µM
same,TGI,MDA-N,31.6 µM
same,TGI,SNB-75 CNS,28.9 µM
same,TGI,CAKI-1 renal,29.4 µM
same,TGI,NCI-H522 lung,20.3 µM
same,TGI,BT-549 breast,31.3 µM
same,TGI,NCI-H460 lung,29.9 µM
same,TGI,HCC-2998 colon,23.6 µM
same,TGI,SW-620 colon,31.6 µM
same,TGI,MCF7 breast,29.7 µM
same,TGI,OVCAR-3 ovarian,33.2 µM
same,TGI,786-0 renal,32.2 µM
same,TGI,SF-539 CNS,31.2 µM
same,TGI,SN12C renal,29.9 µM
same,TGI,U251 CNS,30.8 µM
same,TGI,KM12 colon,26.8 µM
same,TGI,SK-MEL-28 melanoma,32.1 µM
same,TGI,HOP-92 NSCLC,31.8 µM
same,TGI,TK-10 renal,31.7 µM
same,TGI,MALME-3M melanoma,25.6 µM
same,TGI,SK-MEL-2 melanoma,29.4 µM
same,TGI,IGROV1 ovarian,18.8 µM
same,TGI,OVCAR-4 ovarian,32.4 µM
same,TGI,OVCAR-8 ovarian,25.1 µM
same,TGI,MOLT-4 leukemia,36.2 µM
same,TGI,MDA-MB-231 breast,33.8 µM
same,TGI,HCT-116 colon,31.8 µM
same,TGI,OVCAR-5 ovarian,29 µM
same,TGI,A549 NSCLC,30.4 µM
same,TGI,NCI/ADR-RES ovarian,24.3 µM
same,TGI,UACC-257 melanoma,30.8 µM
same,TGI,EKVX NSCLC,21.9 µM
same,TGI,CCRF-CEM leukemia,50.8 µM
same,TGI,HCT-15 colon,29.6 µM
same,TGI,DU-145 prostate,33.5 µM
same,TGI,M14 melanoma,31.5 µM
same,TGI,K-562 leukemia,> 100 µM
same,TGI,SNB-19 CNS,30.9 µM
same,TGI,ACHN renal,32.3 µM
same,TGI,HT29 colon,22.9 µM
same,TGI,SF-268 CNS,28.4 µM
same,TGI,SK-OV-3 ovarian,33.6 µM
same,TGI,RPMI-8226 leukemia,71.2 µM
same,TGI,COLO 205 colon,32.3 µM
same,TGI,NCI-H226 lung,26.2 µM
COc1ccccc1NCC(=O)Nn1c(C)nc2ccc(S(=O)(=O)Nc3ccccc3OC)cc2c1=O,TGI,LOX IMVI melanoma,> 100 µM
same,TGI,MDA-MB-435,85.2 µM
same,TGI,UO-31 renal,> 100 µM
same,TGI,SF-295 CNS,> 100 µM
same,TGI,PC-3 prostate,> 100 µM
same,TGI,UACC-62 melanoma,> 100 µM
same,TGI,HOP-62 NSCLC,> 100 µM
same,TGI,HS 578T breast,> 100 µM
same,TGI,NCI-H23 lung,> 100 µM
same,TGI,MDA-N,> 100 µM
same,TGI,SNB-75 CNS,> 100 µM
same,TGI,CAKI-1 renal,> 100 µM
same,TGI,NCI-H522 lung,> 100 µM
same,TGI,BT-549 breast,> 100 µM
same,TGI,NCI-H460 lung,> 100 µM
same,TGI,HCC-2998 colon,> 100 µM
same,TGI,SW-620 colon,> 100 µM
same,TGI,MCF7 breast,> 100 µM
same,TGI,OVCAR-3 ovarian,> 100 µM
same,TGI,786-0 renal,> 100 µM
same,TGI,SF-539 CNS,> 100 µM
same,TGI,SN12C renal,> 100 µM
same,TGI,U251 CNS,> 100 µM
same,TGI,KM12 colon,> 100 µM
same,TGI,SK-MEL-28 melanoma,> 100 µM
same,TGI,HOP-92 NSCLC,> 100 µM
same,TGI,TK-10 renal,> 100 µM
same,TGI,MALME-3M melanoma,> 100 µM
same,TGI,SK-MEL-2 melanoma,> 100 µM
same,TGI,IGROV1 ovarian,> 100 µM
same,TGI,OVCAR-4 ovarian,> 100 µM
same,TGI,OVCAR-8 ovarian,> 100 µM
same,TGI,MOLT-4 leukemia,> 100 µM
same,TGI,MDA-MB-231 breast,> 100 µM
same,TGI,HCT-116 colon,> 100 µM
same,TGI,OVCAR-5 ovarian,> 100 µM
same,TGI,A549 NSCLC,> 100 µM
same,TGI,NCI/ADR-RES ovarian,> 100 µM
same,TGI,UACC-257 melanoma,> 100 µM
same,TGI,EKVX NSCLC,> 100 µM
same,TGI,CCRF-CEM leukemia,> 100 µM
same,TGI,HCT-15 colon,> 100 µM
same,TGI,SR leukemia,> 100 µM
same,TGI,HL-60(TB) leukemia,> 100 µM
same,TGI,DU-145 prostate,> 100 µM
same,TGI,M14 melanoma,> 100 µM
same,TGI,K-562 leukemia,> 100 µM
same,TGI,SNB-19 CNS,> 100 µM
same,TGI,ACHN renal,> 100 µM
same,TGI,HT29 colon,> 100 µM
same,TGI,SF-268 CNS,> 100 µM
same,TGI,SK-OV-3 ovarian,> 100 µM
same,TGI,RPMI-8226 leukemia,> 100 µM
same,TGI,COLO 205 colon,> 100 µM
same,TGI,NCI-H226 lung,> 100 µM
